# Measured values as given in ChEMBL document CHEMBL2406961, “Inhibitors of ATR Kinase for Treatment of Cancer” (ACS Med Chem Lett, 2013).
# Target: Serine/threonine-protein kinase ATR (Homo sapiens, UniProt Q13535)
# Assay: Inhibition of ATR (unknown origin)
# Sequence of Serine/threonine-protein kinase ATR (Q13535 whole entry): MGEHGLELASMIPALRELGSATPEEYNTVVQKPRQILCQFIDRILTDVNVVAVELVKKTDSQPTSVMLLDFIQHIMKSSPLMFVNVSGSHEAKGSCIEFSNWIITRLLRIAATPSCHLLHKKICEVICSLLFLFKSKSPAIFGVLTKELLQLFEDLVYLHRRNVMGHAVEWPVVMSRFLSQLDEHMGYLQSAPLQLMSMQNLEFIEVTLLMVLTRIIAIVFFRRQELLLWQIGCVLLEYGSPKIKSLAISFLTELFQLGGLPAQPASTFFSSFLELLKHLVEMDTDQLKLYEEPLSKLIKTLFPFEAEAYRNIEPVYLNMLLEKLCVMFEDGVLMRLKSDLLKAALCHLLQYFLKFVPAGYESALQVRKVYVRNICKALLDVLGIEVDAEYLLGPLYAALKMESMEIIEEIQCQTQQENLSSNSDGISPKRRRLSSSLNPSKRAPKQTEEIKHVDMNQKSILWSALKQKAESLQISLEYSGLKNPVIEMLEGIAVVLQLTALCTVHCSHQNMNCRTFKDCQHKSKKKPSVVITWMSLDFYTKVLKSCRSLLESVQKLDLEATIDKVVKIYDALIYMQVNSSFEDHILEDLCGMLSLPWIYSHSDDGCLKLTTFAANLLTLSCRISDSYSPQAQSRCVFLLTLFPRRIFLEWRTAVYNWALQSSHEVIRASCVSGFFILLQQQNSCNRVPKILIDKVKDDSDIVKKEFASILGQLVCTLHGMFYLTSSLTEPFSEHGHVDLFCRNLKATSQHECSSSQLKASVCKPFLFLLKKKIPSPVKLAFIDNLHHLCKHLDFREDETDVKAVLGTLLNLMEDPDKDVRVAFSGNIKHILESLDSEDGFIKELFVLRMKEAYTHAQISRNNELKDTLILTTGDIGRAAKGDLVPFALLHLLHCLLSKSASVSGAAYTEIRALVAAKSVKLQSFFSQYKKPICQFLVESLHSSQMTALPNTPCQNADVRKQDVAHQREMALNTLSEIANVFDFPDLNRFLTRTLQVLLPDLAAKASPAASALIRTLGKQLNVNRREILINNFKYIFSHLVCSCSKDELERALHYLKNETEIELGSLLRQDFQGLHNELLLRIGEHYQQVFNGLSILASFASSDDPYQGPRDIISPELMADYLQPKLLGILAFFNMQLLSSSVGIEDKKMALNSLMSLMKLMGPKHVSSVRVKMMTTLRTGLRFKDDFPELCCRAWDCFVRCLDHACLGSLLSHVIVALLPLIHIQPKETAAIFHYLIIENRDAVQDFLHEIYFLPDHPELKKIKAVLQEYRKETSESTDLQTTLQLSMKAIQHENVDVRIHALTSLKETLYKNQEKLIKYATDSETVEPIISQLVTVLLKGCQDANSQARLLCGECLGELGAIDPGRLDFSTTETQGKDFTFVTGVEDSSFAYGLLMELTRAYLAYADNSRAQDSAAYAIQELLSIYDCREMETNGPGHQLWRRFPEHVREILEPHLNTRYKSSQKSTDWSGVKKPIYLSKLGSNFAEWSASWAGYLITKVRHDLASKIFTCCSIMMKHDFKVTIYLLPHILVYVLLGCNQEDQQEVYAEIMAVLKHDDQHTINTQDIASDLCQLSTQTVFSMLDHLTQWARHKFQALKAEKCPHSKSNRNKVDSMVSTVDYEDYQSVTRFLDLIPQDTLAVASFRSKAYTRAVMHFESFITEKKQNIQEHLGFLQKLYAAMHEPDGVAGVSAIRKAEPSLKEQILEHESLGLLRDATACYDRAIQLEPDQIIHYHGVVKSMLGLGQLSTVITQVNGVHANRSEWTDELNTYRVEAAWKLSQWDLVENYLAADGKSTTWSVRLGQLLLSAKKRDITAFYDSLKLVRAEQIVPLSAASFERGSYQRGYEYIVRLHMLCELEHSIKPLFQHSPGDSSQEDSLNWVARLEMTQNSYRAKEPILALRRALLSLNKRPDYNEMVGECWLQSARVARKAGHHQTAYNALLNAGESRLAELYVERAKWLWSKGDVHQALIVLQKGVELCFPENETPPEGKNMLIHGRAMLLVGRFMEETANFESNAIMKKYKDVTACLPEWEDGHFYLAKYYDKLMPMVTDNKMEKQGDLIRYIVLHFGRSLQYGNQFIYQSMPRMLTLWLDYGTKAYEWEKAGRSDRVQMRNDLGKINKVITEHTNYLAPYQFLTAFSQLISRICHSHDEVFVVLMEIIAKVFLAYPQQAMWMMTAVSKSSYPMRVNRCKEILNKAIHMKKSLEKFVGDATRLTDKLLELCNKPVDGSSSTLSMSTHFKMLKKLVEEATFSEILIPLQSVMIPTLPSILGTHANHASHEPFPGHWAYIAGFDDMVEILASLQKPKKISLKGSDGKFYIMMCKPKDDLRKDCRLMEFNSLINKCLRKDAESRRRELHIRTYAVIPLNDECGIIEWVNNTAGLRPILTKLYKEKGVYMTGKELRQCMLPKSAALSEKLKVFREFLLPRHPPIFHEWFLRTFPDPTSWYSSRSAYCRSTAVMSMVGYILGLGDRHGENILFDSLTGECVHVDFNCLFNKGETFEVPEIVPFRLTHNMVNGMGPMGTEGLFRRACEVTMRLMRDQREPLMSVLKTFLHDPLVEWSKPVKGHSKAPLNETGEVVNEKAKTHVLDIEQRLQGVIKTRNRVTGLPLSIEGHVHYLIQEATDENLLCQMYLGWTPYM
row,Structure (SMILES),Ki
1,CC(C)S(=O)(=O)c1ccc(-c2cnc(N)c(C3CC(c4ccccc4)=NO3)n2)cc1 (configuration not stated),90 nM
2,CNCc1ccc(C2=NOC(c3nc(-c4ccc(S(=O)(=O)C(C)C)cc4)cnc3N)C2)cc1 (configuration not stated),16 nM
